One block for each compound: values may come before it.
System: NCI-H510 multicellular tumor spheroid growth, % test/control
Assay: Anticancer human tumor NCI-H510 cell line growth inhibition [Asc];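 further: spheroids exposed to agents for 7 days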;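 on viability, T/C: 100% = DMSO vehicle control wells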
Conditions: for IC50: curve of first compound; for viability, T/C: stronger effect = lower value
Summary of the method: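 Concentration series start at each agent's clinical Cmax, or at 10 microM when none is established, and drop in half-log steps; agents are applied alone or together to complex spheroids built with HUVEC and hMSC.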

[1] = second compound 0.1 µM, first compound 0.0316 µM
[2] = second compound 0.1 µM, first compound 0.1 µM
[3] = second compound 0.1 µM, first compound 0.316 µM
[4] = second compound 0.1 µM, first compound 1 µM
[5] = second compound 0.1 µM, first compound 3.16 µM
[6] = second compound 0.1 µM, first compound 10 µM
[7] = second compound 0.316 µM, first compound 0.0316 µM
[8] = second compound 0.316 µM, first compound 0.1 µM
[9] = second compound 0.316 µM, first compound 0.316 µM
[10] = second compound 0.316 µM, first compound 1 µM
[11] = second compound 0.316 µM, first compound 3.16 µM
[12] = second compound 0.316 µM, first compound 10 µM
[13] = second compound 1 µM, first compound 0.0316 µM
[14] = second compound 1 µM, first compound 0.1 µM
[15] = second compound 1 µM, first compound 0.316 µM
[16] = second compound 1 µM, first compound 1 µM
[17] = second compound 1 µM, first compound 3.16 µM
[18] = second compound 1 µM, first compound 10 µM
[19] = second compound 3.16 µM, first compound 0.0316 µM
[20] = second compound 3.16 µM, first compound 0.1 µM
[21] = second compound 10 µM, first compound 0.0316 µM
[22] = second compound 10 µM, first compound 0.1 µM

IC50 (second compound 0.01 µM): 1960 nM
IC50 (second compound 0.0316 µM): 1860 nM
IC50 (second compound 0.1 µM): 1750 nM
IC50 (second compound 0.316 µM): 1700 nM
IC50 (second compound 1 µM): 1830 nM
SMILES: C=C(F)C(=O)N1CCN(c2nc(OCC3CCCN3C)nc3c2CCN(c2cccc4cccc(Cl)c24)C3)CC1CC#N (stereo not given) + CNC(C)C(=O)NC1CN(S(=O)(=O)c2cccc(S(=O)(=O)N3CCC4CCC(C(=O)NC(c5ccccc5)c5ccccc5)N4C(=O)C(NC(=O)C(C)NC)C3)c2)CCC2CCC(C(=O)NC(c3ccccc3)c3ccccc3)N2C1=O
viability, T/C (second compound 0.01 µM, first compound 0.0316 µM): 125%
viability, T/C (second compound 0.01 µM, first compound 0.1 µM): 117%
viability, T/C (second compound 0.01 µM, first compound 0.316 µM): 108%
viability, T/C (second compound 0.01 µM, first compound 1 µM): 116%
viability, T/C (second compound 0.01 µM, first compound 3.16 µM): 2.75%
viability, T/C (second compound 0.01 µM, first compound 10 µM): 0.14%
viability, T/C (second compound 0.0316 µM, first compound 0.0316 µM): 115%
viability, T/C (second compound 0.0316 µM, first compound 0.1 µM): 101%
viability, T/C (second compound 0.0316 µM, first compound 0.316 µM): 104%
viability, T/C (second compound 0.0316 µM, first compound 1 µM): 108%
viability, T/C (second compound 0.0316 µM, first compound 3.16 µM): 1.63%
viability, T/C (second compound 0.0316 µM, first compound 10 µM): 0.13%
viability, T/C [1]: 102%
viability, T/C [2]: 119%
viability, T/C [3]: 110%
viability, T/C [4]: 96.4%
viability, T/C [5]: 1.1%
viability, T/C [6]: 0.14%
viability, T/C [7]: 97.4%
viability, T/C [8]: 124%
viability, T/C [9]: 115%
viability, T/C [10]: 89.4%
viability, T/C [11]: 4.39%
viability, T/C [12]: 0.13%
viability, T/C [13]: 115%
viability, T/C [14]: 105%
viability, T/C [15]: 108%
viability, T/C [16]: 104%
viability, T/C [17]: 0.85%
viability, T/C [18]: 0.22%

IC50 (second compound 0.1 µM): 1610 nM
IC50 (second compound 0.316 µM): 1520 nM
IC50 (second compound 1 µM): 1490 nM
IC50 (second compound 3.16 µM): 1160 nM
IC50 (second compound 10 µM): 1320 nM
SMILES: O=C(c1cc(Cc2n[nH]c(=O)c3ccccc23)ccc1F)N1CCN(C(=O)C2CC2)CC1 + Cc1c(S(C)(=O)=O)c(-c2cc(F)cc(N3CCN(c4ccc(NS(=O)(=O)c5ccc(NC(CCN6CCC(C(=O)OCCCP(=O)(O)O)CC6)CSc6ccccc6)c(S(=O)(=O)C(F)(F)F)c5)cc4)CC3)c2)c(-c2ccc(Cl)cc2)n1C(C)C
viability, T/C [1]: 94.8%
viability, T/C [2]: 101%
viability, T/C [3]: 107%
viability, T/C [4]: 74.1%
viability, T/C [5]: 13.4%
viability, T/C [6]: 18.7%
viability, T/C [7]: 124%
viability, T/C [8]: 89.1%
viability, T/C [9]: 106%
viability, T/C [10]: 73.5%
viability, T/C [11]: 8.58%
viability, T/C [12]: 3.25%
viability, T/C [13]: 94.8%
viability, T/C [14]: 112%
viability, T/C [15]: 93.2%
viability, T/C [16]: 69.5%
viability, T/C [17]: 14.3%
viability, T/C [18]: 3.96%
viability, T/C [19]: 111%
viability, T/C [20]: 121%
viability, T/C (second compound 3.16 µM, first compound 0.316 µM): 87.1%
viability, T/C (second compound 3.16 µM, first compound 1 µM): 63.3%
viability, T/C (second compound 3.16 µM, first compound 3.16 µM): 4.95%
viability, T/C (second compound 3.16 µM, first compound 10 µM): 3.34%
viability, T/C [21]: 81.6%
viability, T/C [22]: 94.5%
viability, T/C (second compound 10 µM, first compound 0.316 µM): 81.5%
viability, T/C (second compound 10 µM, first compound 1 µM): 65.2%
viability, T/C (second compound 10 µM, first compound 3.16 µM): 1.71%
viability, T/C (second compound 10 µM, first compound 10 µM): 1.74%

IC50 (second compound 0.1 µM): 8.46 nM
IC50 (second compound 0.316 µM): 9.32 nM
IC50 (second compound 1 µM): 4.76 nM
IC50 (second compound 3.16 µM): 6.9 nM
IC50 (second compound 10 µM): 5 nM
SMILES: Cn1ncnc1[C@H]1c2n[nH]c(=O)c3cc(F)cc(c23)N[C@@H]1c1ccc(F)cc1 + Cc1c(S(C)(=O)=O)c(-c2cc(F)cc(N3CCN(c4ccc(NS(=O)(=O)c5ccc(NC(CCN6CCC(C(=O)OCCCP(=O)(O)O)CC6)CSc6ccccc6)c(S(=O)(=O)C(F)(F)F)c5)cc4)CC3)c2)c(-c2ccc(Cl)cc2)n1C(C)C
viability, T/C (second compound 0.1 µM, first compound 0.000316 µM): 88%
viability, T/C (second compound 0.1 µM, first compound 0.001 µM): 101%
viability, T/C (second compound 0.1 µM, first compound 0.00316 µM): 58.5%
viability, T/C (second compound 0.1 µM, first compound 0.01 µM): 58.2%
viability, T/C [1]: 9.67%
viability, T/C [2]: 7.11%
viability, T/C (second compound 0.316 µM, first compound 0.000316 µM): 106%
viability, T/C (second compound 0.316 µM, first compound 0.001 µM): 70.3%
viability, T/C (second compound 0.316 µM, first compound 0.00316 µM): 101%
viability, T/C (second compound 0.316 µM, first compound 0.01 µM): 47.3%
viability, T/C [7]: 5.08%
viability, T/C [8]: 5.01%
viability, T/C (second compound 1 µM, first compound 0.000316 µM): 96.2%
viability, T/C (second compound 1 µM, first compound 0.001 µM): 91.8%
viability, T/C (second compound 1 µM, first compound 0.00316 µM): 68.7%
viability, T/C (second compound 1 µM, first compound 0.01 µM): 16.2%
viability, T/C [13]: 2.54%
viability, T/C [14]: 2.95%
viability, T/C (second compound 3.16 µM, first compound 0.000316 µM): 96.9%
viability, T/C (second compound 3.16 µM, first compound 0.001 µM): 79.8%
viability, T/C (second compound 3.16 µM, first compound 0.00316 µM): 92.3%
viability, T/C (second compound 3.16 µM, first compound 0.01 µM): 31.1%
viability, T/C [19]: 12.2%
viability, T/C [20]: 2.55%
viability, T/C (second compound 10 µM, first compound 0.000316 µM): 92.6%
viability, T/C (second compound 10 µM, first compound 0.001 µM): 88.9%
viability, T/C (second compound 10 µM, first compound 0.00316 µM): 81.9%
viability, T/C (second compound 10 µM, first compound 0.01 µM): 1.81%
viability, T/C [21]: 1.16%
viability, T/C [22]: 1.64%

IC50 (second compound 0.03 µM): 1330 nM
IC50 (second compound 0.0949 µM): 2020 nM
IC50 (second compound 0.3 µM): 1360 nM
IC50 (second compound 0.949 µM): 2620 nM
IC50 (second compound 3 µM): 2550 nM
SMILES: O=C(c1cc(Cc2n[nH]c(=O)c3ccccc23)ccc1F)N1CCN(C(=O)C2CC2)CC1 + CCN1C(C(=O)NC23CCC(C(=O)O)(CC2)CC3)C(c2cccc(Cl)c2F)C2(C(=O)Nc3cc(Cl)ccc32)C12CCCCC2
viability, T/C (second compound 0.03 µM, first compound 0.0316 µM): 77.3%
viability, T/C (second compound 0.03 µM, first compound 0.1 µM): 101%
viability, T/C (second compound 0.03 µM, first compound 0.316 µM): 100%
viability, T/C (second compound 0.03 µM, first compound 1 µM): 60.9%
viability, T/C (second compound 0.03 µM, first compound 3.16 µM): 18.1%
viability, T/C (second compound 0.03 µM, first compound 10 µM): 8.44%
viability, T/C (second compound 0.0949 µM, first compound 0.0316 µM): 81.3%
viability, T/C (second compound 0.0949 µM, first compound 0.1 µM): 106%
viability, T/C (second compound 0.0949 µM, first compound 0.316 µM): 105%
viability, T/C (second compound 0.0949 µM, first compound 1 µM): 77.5%
viability, T/C (second compound 0.0949 µM, first compound 3.16 µM): 32.7%
viability, T/C (second compound 0.0949 µM, first compound 10 µM): 19.7%
viability, T/C (second compound 0.3 µM, first compound 0.0316 µM): 79.8%
viability, T/C (second compound 0.3 µM, first compound 0.1 µM): 102%
viability, T/C (second compound 0.3 µM, first compound 0.316 µM): 95.7%
viability, T/C (second compound 0.3 µM, first compound 1 µM): 57%
viability, T/C (second compound 0.3 µM, first compound 3.16 µM): 25.5%
viability, T/C (second compound 0.3 µM, first compound 10 µM): 8.82%
viability, T/C (second compound 0.949 µM, first compound 0.0316 µM): 109%
viability, T/C (second compound 0.949 µM, first compound 0.1 µM): 99.8%
viability, T/C (second compound 0.949 µM, first compound 0.316 µM): 97.5%
viability, T/C (second compound 0.949 µM, first compound 1 µM): 86.7%
viability, T/C (second compound 0.949 µM, first compound 3.16 µM): 42.5%
viability, T/C (second compound 0.949 µM, first compound 10 µM): 5.78%
viability, T/C (second compound 3 µM, first compound 0.0316 µM): 94.5%
viability, T/C (second compound 3 µM, first compound 0.1 µM): 78.1%
viability, T/C (second compound 3 µM, first compound 0.316 µM): 95.1%
viability, T/C (second compound 3 µM, first compound 1 µM): 93.3%
viability, T/C (second compound 3 µM, first compound 3.16 µM): 40.8%
viability, T/C (second compound 3 µM, first compound 10 µM): 22.3%
